According to patent publication US7674819B2 (Warner-Lambert Company LLC, priority 2005, dated 2010):
Numbering of substitutions follows the chain as printed. Where two headings read alike, the source gives them in different places.

Tests used:
[1] = target: T1, androgen receptor (Homo sapiens, UniProt P10275); experiment: AR Antagonist Cell Assay (MDA-MB453-MMTV clone 54-19, luciferase reporter); assay type: cell-based; conditions: inhibition of induction by DHT (final concentration at 100 μM), 17 hr, compound 0.32-1000 nM, mean of multiple tests
T1 sequence (P10275 1-920 Q868H): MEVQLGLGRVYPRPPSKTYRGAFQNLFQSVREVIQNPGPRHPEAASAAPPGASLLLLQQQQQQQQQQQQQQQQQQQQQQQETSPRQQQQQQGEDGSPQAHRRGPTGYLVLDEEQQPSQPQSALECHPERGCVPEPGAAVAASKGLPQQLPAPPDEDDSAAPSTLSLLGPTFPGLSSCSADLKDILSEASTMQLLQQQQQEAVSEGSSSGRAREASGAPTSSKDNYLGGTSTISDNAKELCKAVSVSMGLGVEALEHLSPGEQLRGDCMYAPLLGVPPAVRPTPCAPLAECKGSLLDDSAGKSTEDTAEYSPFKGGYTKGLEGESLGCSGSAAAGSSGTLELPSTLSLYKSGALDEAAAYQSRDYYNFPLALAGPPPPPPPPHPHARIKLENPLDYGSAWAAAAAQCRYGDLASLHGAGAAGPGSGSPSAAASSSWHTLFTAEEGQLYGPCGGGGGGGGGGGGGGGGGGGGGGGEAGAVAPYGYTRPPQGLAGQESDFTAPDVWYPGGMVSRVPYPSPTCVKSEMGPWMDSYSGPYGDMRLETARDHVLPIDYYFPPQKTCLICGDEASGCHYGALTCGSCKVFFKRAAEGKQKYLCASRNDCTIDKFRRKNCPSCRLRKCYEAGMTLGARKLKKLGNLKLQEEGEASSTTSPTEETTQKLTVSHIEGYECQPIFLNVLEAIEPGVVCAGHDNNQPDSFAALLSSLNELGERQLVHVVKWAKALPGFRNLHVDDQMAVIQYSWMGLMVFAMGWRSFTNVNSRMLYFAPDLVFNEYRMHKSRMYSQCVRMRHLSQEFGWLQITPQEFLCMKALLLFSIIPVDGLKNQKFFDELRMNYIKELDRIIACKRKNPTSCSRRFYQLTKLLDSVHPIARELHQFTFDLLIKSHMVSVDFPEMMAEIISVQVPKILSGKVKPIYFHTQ
In short: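 MDA-MB453 breast tumour cells stably carrying an ARE-containing MMTV promoter driving firefly luciferase, plated overnight at 37° C in charcoal-treated serum medium. DHT added (final […]) and incubated 17 hr at 37° C. Luminescence read after adding luciferase buffer; values are means of multiple tests.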

[2] = target: T2, hAR (Homo sapiens, UniProt P10275); experiment: Competitive binding of 3H-DHT to baculovirus/Sf9 generated hAR extracts; conditions: one hour at 4° C., mean of multiple tests
T2 sequence (P10275 1-920): T1 sequence (P10275 1-920 Q868H) with H868Q
In short: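 Baculovirus/Sf9-expressed hAR extract incubated with test compound, hydroxylapatite and 1 nM 3H-DHT tracer for 1 h at 4° C, then washed free of unbound tracer. Affinity given as concentration inhibiting half of maximal 3H-DHT binding.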

[3] = IC50, concentration at which one half of maximum binding of 1 nM 3H-DHT to hAR is inhibited
[4] = concentration at which one half of maximum binding of 1 nM 3H-DHT to hAR is inhibited, read-out: IC50

Structure (SMILES)	IC50 [1] [nM]	IC50 [2, 3] [nM]	IC50 ([1]; read-out: IC50) [nM]	IC50 [2, 4] [nM]
CCCCN1CC(C)(C)C(Oc2ccc(C#N)c(C(F)(F)F)c2)C1=O (single isomer, unassigned; (+)) [Example 20, (+)-4-(1-Butyl-4,4-dimethyl-2-oxo-pyrrolidin-3-yloxy)-2-trifluoromethyl-benzonitrile]	13	97	–	–
CCCS(=O)(=O)N1CC(C)(C)C(Oc2ccc(C#N)c(C(F)(F)F)c2)C1=O (single isomer, unassigned; (+)) [Example 82, (+)-4-[4,4-Dimethyl-2-oxo-1-(propane-1-sulfonyl)-pyrrolidin-3-yloxy]-2-trifluoromethyl-benzonitrile]	56	47	–	–
CC[C@H](C)N1CC(C)(C)[C@@H](Oc2ccc(C#N)c(C(F)(F)F)c2)C1=O [Example 1, (3R,S)-(+)-4-(1-sec-Butyl-4,4-dimethyl-2-oxo-pyrrolidin-3-yloxy)-2-trifluoromethyl-benzonitrile]	33	136	–	–
CCCN1CC(C)(C)C(Oc2ccc(C#N)c(C(F)(F)F)c2)C1=O (centres unmarked) [Example 4, 4-(4,4-dimethyl-2-oxo-1-propyl-pyrrolidin-3-yloxy)-2-trifluoromethyl-benzonitrile]	26	188	–	–
CCCN1CC(C)(C)[C@@H](Oc2ccc(C#N)c(C(F)(F)F)c2)C1=O [Example 4A, (+)-4-(1-Propyl-4,4-dimethyl-2-oxo-pyrrolidin-3-yloxy)-2-trifluoromethyl-benzonitrile (E2)]	92	230	–	–
CC1(C)CN(S(C)(=O)=O)C(=O)C1Oc1ccc(C#N)c(C(F)(F)F)c1 (centres unmarked) [Example 81, 4-(1-methanesulfonyl-4,4-dimethyl-2-oxo-pyrrolidin-3-yloxy)-2-trifluoromethyl-benzonitrile]	–	–	199	139
CC(c1ccccc1)N1CC(C)(C)C(Oc2ccc(C#N)cc2Cl)C1=O (centres unmarked) [Example 109]	–	–	14	203
